Test results reported in patent US10653688B2, “6-(6-membered heteroaryl and aryl)isoquinolin-3-yl carboxamides and preparation and use thereof” (Samumed, LLC, priority 2017, dated 2020).
Read-outs that look alike come from different tables or passages of the source.

Assays:
[1] = tested on: Tau phosphorylation at Ser396 (pSer396) in SH-SY5Y cells; assay: Tau phosphorylation at Ser396 (pSer396) cell assay, ELISA/western blot; format: cell-based, human; conditions: Homo sapiens; SH-SY5Y cells, overnight (16-18 h); read-out: pSer396 Tau EC50
Experimental: SH-SY5Y cells (human neuroblastoma) were cultured in DMEM/F-12 medium supplemented with 15% FBS, Non-essential Amino Acid and Penicillin/Streptomycin. Two days before treatment, cells were seeded onto 96 well plates at 5×10^4 cells/well.
The above synthesized compounds were screened using the cell assay procedure to assess decrease Tau phosphorylation at Ser396 (pSer396) described below.
DMSO-resuspended compounds were dispensed to 8 wells as a serial titration from 10 μM to 4.6 nM final in medium and cells were exposed overnight (16-18 h) in a humidified incubator at 36.6c before harvest.
Cells were lysed with RIPA buffer complemented with phosphatase and protease inhibitors then lysates were spun down at 12,000 g for 10 min to remove any cellular debris. Lysates are then either directly tested for pSer396 by ELISA (Life Technology, Kit KHB7031) or loaded on NuPage Bis-Tris gels for western blot analysis. Colorimetric detection of ELISA signal is performed by Cytation3 plate reader (Biotek) and the chemiluminescence signal for HRP-linked antibodies used in western blotting is detected using a Carestream Image Station. The same pSer396 antibody is used for detection of pTau in both assays.
Blot densitometry for pSer396 and β-actin were analyzed using ImageJ (NIH) and pSer396 Tau ELISA signal was used to plot, draw the curve fitting, and determine each compounds EC50 in Prism (GraphPad).

[2] = biological target: recombinant GSK3β kinase (Homo sapiens (Human), UniProt P49841); assay: GSK3β kinase assay (Ser/Thr 09 peptide Z-lyte, FRET); format: biochemical;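 also: FRET read-out as coumarin over fluorescein emission ratio, compounds incubated one hour at room temperature, IC50 from dose-response curve fit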
recombinant GSK3β kinase, sequence (P49841 whole entry): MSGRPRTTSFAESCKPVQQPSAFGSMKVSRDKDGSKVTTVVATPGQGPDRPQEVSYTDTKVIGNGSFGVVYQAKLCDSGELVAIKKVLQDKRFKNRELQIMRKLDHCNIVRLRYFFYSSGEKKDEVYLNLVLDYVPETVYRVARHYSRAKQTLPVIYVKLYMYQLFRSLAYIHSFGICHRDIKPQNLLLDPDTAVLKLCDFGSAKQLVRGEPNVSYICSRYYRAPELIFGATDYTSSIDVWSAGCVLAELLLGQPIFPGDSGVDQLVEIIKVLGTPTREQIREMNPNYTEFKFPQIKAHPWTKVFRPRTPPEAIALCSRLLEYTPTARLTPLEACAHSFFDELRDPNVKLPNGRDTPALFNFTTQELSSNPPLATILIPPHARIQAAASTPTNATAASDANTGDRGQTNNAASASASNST

[3] = tested on: Wnt activity (SW480 colon carcinoma cells stably expressing the Sp5-Luc reporter gene); assay: Wnt activity screening assay (Sp5-Luc reporter gene assay); format: cell-based, human; conditions: Homo sapiens; for EC50: 36 to 48 hours; for inhibition at 10 µM: read-out: percent inhibition at 10 μM (given for EC50 >10 μM), 10 μM
In short: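 SW480 colon carcinoma cells stably carrying a lentiviral luciferase reporter driven by an Sp5 promoter with eight TCF/LEF sites, plated at 4,000 cells/well in DMEM with 1% FBS. Compound exposure for 36–48 h at 37 °C, then luminescence read. Signals normalized to DMSO; EC50 from four-parameter nonlinear fit.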

[4] = tested on: SW480 colon carcinoma cells; assay: Cell viability assay (CellTiter-Glo); format: cell-based, human; conditions: Homo sapiens; for EC50: 96 h, four days, CellTiter-Glo; for inhibition at 10 µM: read-out: percent inhibition at 10 μM (given for EC50 >10 μM), 10 μM
[5] = tested on: IL-6 in human peripheral blood mononuclear cells (huPBMCs); assay: IL-6 inhibition in LPS-stimulated human peripheral blood mononuclear cells (HTRF); format: cell-based; conditions: Homo sapiens, PBMC; for EC50: LPS 50 ng/mL, 22 hours, IL-6 HTRF; for inhibition at 10 µM: read-out: percent inhibition at 10 μM (given for EC50 >10 μM), LPS, IL-6, 10 μM
In short: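 Fresh normal human PBMCs at 1×10e6 cells/mL in RPMI with 1% FBS received compound, then 50 ng/mL E. coli 0111:B4 LPS 2 h later, and were incubated a further 22 h at 37° C. IL-6 read by HTRF (665/620 nm ratio), normalized to DMSO; EC50 from 4-parameter fit.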

[6] = tested on: LL29 cells (primary human fibroblasts derived from IPF patients), α-smooth muscle actin; assay: Inhibition of fibrotic process: TGF-β1-treated primary human fibroblasts, αSMA staining; format: cell-based; conditions: Homo sapiens, Fibroblast; for EC50: 96 h, TGF-β1 20 ng/mL, 4 days, % cells positive for αSMA; for inhibition at 10 µM: read-out: percent inhibition at 10 μM (given for EC50 >10 μM), TGF-β1, αSMA, 10 μM;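 as to all read-outs here: controls were TGF-β1-stimulated wells with DMSO vehicle as the positive reference and cells given DMSO alone as the negative reference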
[7] = biological target: recombinant DYRK1A kinase (Homo sapiens (Human), UniProt Q13627); assay: DYRK1A kinase assay (Ser/Thr 18 peptide Z-lyte, FRET)
[8] = tested on: pT212Tau in Dyrk1a- and MAPT-overexpressing HEK293T cells; assay: Tau phosphorylation at Threonine 212 (pT212Tau) sandwich ELISA in double transfected cells; conditions: Homo sapiens, HEK-293T, read-out: Thr212 EC50 (μM)
[9] = tested on: secreted cytokines TNFα, IL-6 and KC-GRO in BV-2 cells (mouse microglial cells); assay: Secreted cytokines in lipopolysaccharide-stimulated mouse glial cell line; format: cell-based; conditions: LPS 250 ng/mL 5 hours, table does not say which cytokine
Experimental: Representative compounds were screened using the cell-based assay procedure for secreted cytokines in a Lipopolysaccharide-stimulated mouse glial cell line described below.
BV-2 cells (mouse microglial cells) were cultured in 1:1 DMEM medium supplemented with 10% FBS, and 1% penicillin/streptomycin.
BV-2 cells are plated at 35,000 cells/well in a volume of 100 μl for at least 4 hours before compounds are added. DMSO-resuspended compounds were first dispensed in a 96-well plate and serial diluted from 10 μM to 4.6 nM final concentration in medium. Compounds were added to cells overnight. 250 ng/mL of lipopolysaccharide (Escherichia coli O111:B4, SIGMA) was added for 5 hours. Supernatant is removed and saved for further cytokine detection. The original plates with seeded cells were tested for cytotoxicity by measure of adenosine triphosphate (ATP) release by adding CellTiter-Glo® diluted 1:4 in distilled water (G7573, Promega) and transferring lysed cells to a completely black 96-well plate to be read with the Cytation3. Supernatant was then diluted 1:2 with a diluent from V-PLEX cytokine Kit and directly tested for the secreted cytokines TNFα, IL-6 and KC-GRO using electrochemiluminescence (Meso Scale Discovery). The standard curve for each cytokine was used to convert the electrochemiluminescent signal into pg of protein per mL. The signal was used to plot, draw the curve fitting, and determine each compounds EC50 in Prism (GraphPad).

[10] = GSK3β kinase, head says EC50, method says IC50, ATP 46 μM
[11] = DYRK1A kinase, head says EC50, method says IC50, ATP 30 μM

Structure (SMILES)	EC50 [1] [nM]	EC50 [2, 10] [nM]	EC50 [3] [nM]	inhibition at 10 µM [3] [%]	EC50 [4] [nM]	inhibition at 10 µM [4] [%]	EC50 [5] [nM]	inhibition at 10 µM [5] [%]	EC50 [6] [nM]	inhibition at 10 µM [6] [%]	EC50 [7, 11] [nM]	EC50 [8] [µM]	EC50 [2] [nM]	EC50 [7] [nM]	EC50 [9] [nM]
O=C(Nc1cc2cc(-c3cncc(F)c3)ccc2cn1)[C@H]1C[C@H](N2CCOCC2)C1 [Compound 16, trans-N-(6-(5-Fluoropyridin-3-yl)isoquinolin-3-yl)-3-morpholinocyclobutane-1-carboxamide]	2600	256	> 10000	24.9	> 10000	15.5	> 10000	43.1	> 10000	6.7	8	0.046	–	–	–
CN1CCC(C(=O)Nc2cc3cc(-c4cnc(N)nc4)ccc3cn2)CC1 [Compound 65, N-(6-(2-Aminopyrimidin-5-yl)isoquinolin-3-yl)-1-methylpiperidine-4-carboxamide]	> 10000	–	> 10000	32.2	> 10000	47.1	> 10000	0	2440	–	–	–	8970	48	–
CN(C)[C@H]1CC[C@H](C(=O)Nc2cc3cc(-c4cnccn4)ccc3cn2)CC1 [Compound 70, trans-4-(dimethylamino)-N-(6-(pyrazin-2-yl)isoquinolin-3-yl)cyclohexane-1-carboxamide]	7800	–	> 10000	31	> 10000	35.3	9330	–	634	–	–	–	755	17	57
O=C(Nc1cc2cc(-c3cnccn3)ccc2cn1)c1ccc(CN2CCOCC2)cc1 [Compound 83, 4-(Morpholinomethyl)-N-(6-(pyrazin-2-yl)isoquinolin-3-yl)benzamide]	> 10000	> 10000	3510	–	6760	–	> 10000	5	> 10000	29.6	9	–	–	–	–
O=C(Nc1cc2cc(-c3cncc(OCC4CNC4)n3)ccc2cn1)c1ccc(F)cc1 [Compound 124, N-(6-(6-(azetidin-3-ylmethoxy)pyrazin-2-yl)isoquinolin-3-yl)-4-fluorobenzamide]	807	180	1060	–	2420	–	2090	–	> 10000	5.2	6	–	–	–	–
